# How the values were obtained:
# Format in all cases: in vivo
# [1] = tested on: diet-induced obesity (DIO) mouse model; experiment: Weight loss effect on repeated co-administration with semaglutide in DIO mice; conditions: repeated co-administration with semaglutide over 18 days, versus single administration, FIGS. 1 and 2
# Experimental: In a diet-induced obesity (DIO) mouse model where obesity was induced using a high-fat diet, the weight loss effect was measured over 18 days following repeated co-administration of semaglutide (a GLP-1 receptor agonist, trade name: Ozempic) and an MC4R agonist, N-((3S,5S)-1-((3S,4R)-1-(tert-butyl)-4-(4-chlorophenyl)pyrrolidine-3-carbonyl)-5-(morpholin-4-carbonyl)pyrrolidin-3-yl)-N-((1 S,4R)-4-methylcyclohexyl)isobutyramide hydrochloride obtained in Preparation Example (hereinafter referred to as ‘test compound’). Body weight measurements were taken once daily prior to the administration of the test substances, and changes in body weight compared to weight (D1) prior to the administration of the test substances were calculated and presented in FIGS. 1 and 2. By comparing the weight loss effect in the co-administration group to that in the single administration group, the effect of co-administration of a GLP-1 receptor agonist and the test compound was evaluated.
# [2] = tested on: diet-induced obesity (DIO) mouse model; experiment: Reduction in liver/fat weight on repeated co-administration with semaglutide in DIO mice; conditions: after 3 weeks, FIG. 3
# Experimental: In a diet-induced obesity (DIO) mouse model where obesity was induced using a high-fat diet, the effect of reduction in liver and fat weights was measured after 3 weeks of repeated co-administration of semaglutide (a GLP-1 receptor agonist, trade name: Ozempic) and the test compound, which is an MC4R agonist, with the results shown in FIG. 3.
# [3] = tested on: diet-induced obesity (DIO) mouse model; experiment: Comparative example: weight loss on co-administration of semaglutide with test compound or setmelanotide in DIO mice; conditions: repeated co-administration with semaglutide for 18 days, test compound 15 mg/kg/day, comparative compound 3 mg/kg/day, FIG. 4
# Source text: In a diet-induced obesity (DIO) mouse model where obesity was induced using a high-fat diet, the weight loss effect was compared after 18 days of repeated co-administration of semaglutide (a GLP-1 receptor agonist, trade name: Ozempic) with either the test compound, which is an MC4R agonist, or setmelanotide (RM-493), which is a peptide MC4R agonist (hereinafter referred to as ‘comparative compound’). Dosages of the test compound and the comparative compound were selected based on the efficacious doses observed in single administration studies (test compound: 15 mg/kg/day, comparative compound: 3 mg/kg/day). Body weight measurements were taken once daily prior to the administration of the test substances, and changes in body weight after 18 days relative to weight (D1) prior to the administration of the test substances were calculated and presented in FIG. 4.
# [4] = tested on: diet-induced obesity (DIO) mouse model; experiment: Combination study with PF-06882961 (danuglipron) in DIO mice: food intake, body weight, body fat mass, OGTT
# Experimental: In a diet-induced obesity (DIO) mouse model where obesity was induced using a high-fat diet, changes in food intake and body weight were measured over 4 weeks of repeated co-administration of PF-06882961 (danuglipron), which is an oral GLP-1 receptor agonist, and the test compound, which is an MC4R agonist. Food intake and body weight were measured once daily prior to the administration of the test substances, and changes in body weight relative to weight (D1) prior to the administration of the test substances were calculated, with the results presented in FIGS. 5 and 6, respectively. Further, on the 28th day after the administration of the test substances, body fat mass and an oral glucose tolerance test (OGTT) were measured, with the results shown in FIGS. 7 and 8, respectively. Body fat mass was measured using a ^1H-Mini-spec system (LF-9011, Bruker Optics GmbH, Germany) and blood glucose was measured using GM9 (Analox Instruments Ltd., UK) with blood samples collected from the tail vein.
smiles,measurement,setting,value
"CC(C)C(=O)N([C@H]1C[C@@H](C(=O)N2CCOCC2)N(C(=O)[C@@H]2CN(C(C)(C)C)C[C@H]2c2ccc(Cl)cc2)C1)[C@H]1CC[C@@H](C)CC1.Cl [test compound, N-((3S,5S)-1-((3S,4R)-1-(tert-butyl)-4-(4-chlorophenyl)pyrrolidine-3-carbonyl)-5-(morpholine-4-carbonyl)pyrrolidin-3-yl)-N-((1s,4R)-4-methylcyclohexyl)isobutyramide hydrochloride]",weight loss effect (change in body weight relative to D1),[1],synergistic weight loss effect
same,effect of reduction in fat weight,[2],synergistic effect in reducing liver and fat weights
same,effect of reduction in liver weight,[2],synergistic effect in reducing liver and fat weights
same,weight loss effect (change in body weight after 18 days relative to D1),[3],significant synergistic weight loss effect
same,reduction in body fat mass,"[4]; co-administration with PF-06882961, day 28, 1H-Mini-spec, versus single administration, FIG. 7",much greater reduction in body fat mass
same,improvement in glucose tolerance (OGTT),"[4]; co-administration with PF-06882961, day 28, oral glucose tolerance test, versus single administration, FIG. 8",improvement in glucose tolerance
same,weight loss effect (change in body weight relative to D1),"[4]; repeated co-administration with PF-06882961 over 4 weeks (28 days), versus single administrations, FIG. 6",synergistic weight loss effect
same,reduction in food intake,"[4]; repeated co-administration with PF-06882961 over 28 days, versus single administrations, FIG. 5",significant reduction in food intake

# — US20260000675A1, “COMBINATION THERAPY FOR PREVENTING OR TREATING OBESITY” (LG CHEM, LTD., priority 2022, published 2026)
